Measured values reported in patent publication US9982073B2, “Homopolymers of terpenoid alcohols and their uses” (priority 2015, dated 2018).

Columns and labels:
Assay type in all cases: cell-based
Candida albicans = assay: Disk inhibition testing, C. albicans; conditions: 24 hours at 37° C.
Experimental: (§1) Plates of Sabourad Dextrose Agar (Difco) and tubes of Malt Extract Broth (20 mL/tube) were prepared according to manufacturer direction using aseptic techniques. Fungal broths of Saccharomyces cerevisiae and Candida albicans were prepared in a tissue culture hood by transferring frozen stock culture (−70° C. freezer, prepared from ATCC bought strains) of the given fungi to the broth tube. The S. cerevisiae culture tubes were incubated for 48 hours at 30° C. and the C. albicans culture tubes were incubated for 48 hours at 37° C.
(§2) Each sample (˜15 mg) was dissolved in a solvent (3.000 mL of tetrahydrofuran or 3.000 mL distilled water) depending on the sample's solubility. The sample (20 μL of sample solution or 100 μg of sample was then transferred to a sterile filter paper disk. The disk was then allowed to dry so that all solvent was evaporated and 100 μg of sample remained on the disk.
Plates of Sabourad Dextrose Agar (Difco) were prepared according to manufacture directions using aseptic techniques. […]
(§3) The C. albicans and A. fumigfatus plates were incubated for 24 hours at 37° C., the A. niger plates were incubated for 48 hours at 25° C. and the S. cerevisiae plates were incubated for 24 hours at 30° C. […] Where a zone of growth inhibition was observed, the diameter of the ring was measured to the closest 0.1 mm using a caliper. […]

Aspergillus niger = assay: Disk inhibition testing, A. niger; conditions: 48 hours at 25° C.
Experimental: (§4) Fungal broths of Aspergillus fumigatus and Aspergillus niger were prepared in a tissue culture hood by transferring the frozen stock culture (−70° C. freezer) of the given fungi to a plate of Sabourad Dextrose Agar. The A. fumigatus culture plates were incubated for 48 hours at 37° C. and the A. niger culture plates were incubated for 72 hours at 25° C. The fungal broth was prepared by using a cork borer to add 2-3 circular pieces of agar containing active fungal growth to distilled water (4.0 mL). A tissue homogenizer was then used to grind the agar and create a suspension of fungal spores.
(§5) Each sample (˜15 mg) was dissolved in a solvent (3.000 mL of tetrahydrofuran or 3.000 mL distilled water) depending on the sample's solubility. The sample (20 μL of sample solution or 100 μg of sample was then transferred to a sterile filter paper disk. The disk was then allowed to dry so that all solvent was evaporated and 100 μg of sample remained on the disk. […]
as §3

Staphylococcus aureus = assay: Disk inhibition testing, S. aureus; conditions: 24 hours at 37° C.; for zone of inhibition at 100 µg/disc: Staphylococcus aureus, 100 μg sample per disk, NI = no inhibition, read-out: Diameter of zone of growth inhibition, S. Aureus
Experimental: (§6) Tubes of Tryptic Soy Broth (10 mL/tube,) were prepared according to manufacturer directions (Difco) using aseptic techniques. Bacterial broth of Escherichia coli, Staphylococcus aureus, Pseudomonas aeruginosa, Proteus hauseri, and Bacillus cereus were prepared in a tissue culture hood by transferring frozen stock culture (−70° C. freezer, prepared from ATCC bacterial quality control strains) of the given bacteria to the broth tube. The E. coli, S. aureus, P. aeruginosa, and P. hauseri culture tubes were then incubated for 24 hours at 37° C. and the B. cereus culture tubes were incubated at 30° C. for 24 hours.
as §2
(§7) Plates of Mueller Hinton II Agar (Difco) were prepared according to manufacturer directions using aseptic techniques. The bacterial agar plates were prepared using the bacterial culture broth of E. coli, S. aureus, P. aeruginosa, P. hauseri, or B. cereus as prepared above after the incubation period. In a tissue culture hood, the given bacterial culture broth solution (300 μL) was transferred to each Mueller Hinton Agar II plate and spread evenly over the agar and allowed to dry for a minimum of 20 minutes. Four sample disks (as prepared above) or control antibiotic disks (pre-made disks) were then places onto each agar plate, one in the center of each quadrant of the plate.
(§8) The E. coli, S. aureus, P. aeruginosa, and P. hauseri, plates were incubated for 24 hours at 37° C. and the B. cereus plates were incubated for 24 hours at 30° C. The plates were then observed for zones of bacterial growth inhibition. Where a zone of growth inhibition was observed, the diameter of the ring was measured to the closest 0.1 mm using a caliper. […] The absence of a uniform bacterial lawn was ruled a failed test and in this case the test would need to be repeated in order to achieve meaningful results.

Escherichia coli = assay: Disk inhibition testing, E. coli; conditions: 24 hours at 37° C.; for zone of inhibition at 100 µg/disc: Escherichia coli, 100 μg sample per disk, NI = no inhibition, read-out: Diameter of zone of growth inhibition, E. Coli
Experimental: as §6, §2, §7, §8

Proteus hauseri = assay: Disk inhibition testing, P. hauseri; conditions: 24 hours at 37° C.; for zone of inhibition at 100 µg/disc: Proteus hauseri, 100 μg sample per disk, NI = no inhibition, read-out: Diameter of zone of growth inhibition, P. Hauseri
Experimental: as §6, §2, §7, §8

Pseudomonas aeruginosa = assay: Disk inhibition testing, P. aeruginosa; conditions: 24 hours at 37° C.
Experimental: as §6, §2, §7, §8

Bacillus cereus = assay: Disk inhibition testing, B. cereus; conditions: pre-made control disk 30 μg; 24 hours at 30° C.
Experimental: as §6, §2
Plates of Mueller Hinton II Agar (Difco) were prepared according to manufacturer directions using aseptic techniques. […]
The E. coli, S. aureus, P. aeruginosa, and P. hauseri, plates were incubated for 24 hours at 37° C. and the B. cereus plates were incubated for 24 hours at 30° C. […] Where a zone of growth inhibition was observed, the diameter of the ring was measured to the closest 0.1 mm using a caliper. […]

Saccharomyces cerevisiae = assay: Disk inhibition testing, S. cerevisiae; conditions: 24 hours at 30° C.; for zone of inhibition at 100 µg/disc: Saccharomyces cerevisiae, 100 μg sample per disk, NI = no inhibition, read-out: Diameter of zone of growth inhibition, S. Cerevisiae
Experimental: as §1, §2
Plates of Sabourad Dextrose Agar (Difco) were prepared according to manufacture directions using aseptic techniques. The fungal agar plates were prepared using the culture broth of S. cerevisiae, C. albicans, A. fumigatus or A. niger as prepared above after the incubation period. In a tissue culture hood, the fungal culture broth solution (200 μL) was transferred to each Sabourad Dextrose Agar plate and spread evenly over the agar and allowed to dry for a minimum of 20 minutes. Four sample disks or control antifungal disks were then places onto each agar plate, one in the center of each quadrant of the plate. The sample disks were prepared as described above and the antifungal disks were pre-made disks of 20 μg of amphotericin B.
The C. albicans and A. fumigfatus plates were incubated for 24 hours at 37° C., the A. niger plates were incubated for 48 hours at 25° C. and the S. cerevisiae plates were incubated for 24 hours at 30° C. The plates were then observed for zones of fungal growth inhibition. Where a zone of growth inhibition was observed, the diameter of the ring was measured to the closest 0.1 mm using a caliper. […]

Aspergillus fumigatus = assay: Disk inhibition testing, A. fumigatus; conditions: pre-made antifungal disk 20 μg; 24 hours at 37° C.
Experimental: as §4, §5, §3

CC(C)=CCC/C(C)=C/CO [Geraniol] was tested, and the zone of inhibition at 100 µg/disc (Candida albicans; Candida albicans, 100 μg sample per disk, NI = no inhibition, read-out: Diameter of zone of growth inhibition, C. Albicans) was 8.3 mm, the zone of inhibition at 100 µg/disc (Aspergillus niger; Aspergillus niger, 100 μg sample per disk, NI = no inhibition, read-out: Diameter of zone of growth inhibition, A. Niger) was 8.1 mm and the zone of inhibition at 100 µg/disc (Staphylococcus aureus) was 4.7 mm. It also gave a zone of inhibition at 100 µg/disc (Escherichia coli) of 8.5 mm and a zone of inhibition at 100 µg/disc (Proteus hauseri) of 9.3 mm.
With CN(C)[C@@H]1C(O)=C(C(N)=O)C(=O)[C@@]2(O)C(O)=C3C(=O)c4c(O)cccc4[C@@](C)(O)[C@H]3C[C@@H]12 [Tetracycline] the “Diameter of zone of growth inhibition, P. Aeriginosa” value (Pseudomonas aeruginosa; pre-made control disk 30 μg) was 12.3 mm, the “Diameter of zone of growth inhibition, S. Aureus” value (Staphylococcus aureus; pre-made control disk 30 μg) was 19.0 mm and the “Diameter of zone of growth inhibition, B. Cereus” value (Bacillus cereus) was 23.4 mm. The “Diameter of zone of growth inhibition, E. Coli” value (Escherichia coli; pre-made control disk 30 μg) was 21.4 mm and the “Diameter of zone of growth inhibition, P. Hauseri” value (Proteus hauseri; pre-made control disk 30 μg) was 15.9 mm.
C=CC(C)(O)CCC=C(C)C (centres unmarked) [Linalool] was tested, and the zone of inhibition at 100 µg/disc (Pseudomonas aeruginosa; Pseudomonas aeruginosa, 100 μg sample per disk, NI = no inhibition, read-out: Diameter of zone of growth inhibition, P. Aeriginosa) was 7.1 mm, the zone of inhibition at 100 µg/disc (Saccharomyces cerevisiae) was 7.3 mm and the zone of inhibition at 100 µg/disc (Escherichia coli) was 7.2 mm.
For C[C@@H]1[C@H](O)[C@@H](C)/C=C/C=C/C=C/C=C/C=C/C=C/C=C/[C@H](O[C@@H]2O[C@H](C)[C@@H](O)[C@H](N)[C@@H]2O)C[C@@H]2O[C@](O)(C[C@@H](O)C[C@@H](O)[C@H](O)CC[C@@H](O)C[C@@H](O)CC(=O)O[C@H]1C)C[C@H](O)[C@H]2C(=O)O [Amphotericin B, amphotericin B], the “Diameter of zone of growth inhibition, C. Albicans” value (Candida albicans; pre-made antifungal disk 20 μg) was 12.9 mm, the “Diameter of zone of growth inhibition, A. Niger” value (Aspergillus niger; pre-made antifungal disk 20 μg) was 9.7 mm and the “Diameter of zone of growth inhibition, S. Cerevisiae” value (Saccharomyces cerevisiae; pre-made antifungal disk 20 μg) was 10.2 mm. The “Diameter of zone of growth inhibition, A. Fumigratus” value (Aspergillus fumigatus) was 11.4 mm.
For Penicillin, the “Diameter of zone of growth inhibition, S. Aureus” value (Staphylococcus aureus; pre-made control disk 10 μg) was 16.9 mm, the “Diameter of zone of growth inhibition, E. Coli” value (Escherichia coli; pre-made control disk 10 μg) was 9.4 mm and the “Diameter of zone of growth inhibition, P. Hauseri” value (Proteus hauseri; pre-made control disk 10 μg) was 8.1 mm.
In the case of CC1(C)S[C@@H]2[C@H](NC(=O)[C@H](N)c3ccccc3)C(=O)N2[C@H]1C(=O)O [Ampicillin], the “Diameter of zone of growth inhibition, P. Aeriginosa” value (Pseudomonas aeruginosa; pre-made control disk 10 μg, NI = no inhibition) is reported as 9.1 mm, the “Diameter of zone of growth inhibition, E. Coli” value (Escherichia coli; pre-made control disk 10 μg) is reported as 19.7 mm and the “Diameter of zone of growth inhibition, P. Hauseri” value (Proteus hauseri; pre-made control disk 10 μg) is reported as 7.2 mm.
For O=C(N[C@H](CO)[C@H](O)c1ccc([N+](=O)[O-])cc1)C(Cl)Cl [Chloramphenicol], the “Diameter of zone of growth inhibition, P. Aeriginosa” value (Pseudomonas aeruginosa; pre-made control disk 30 μg) was 18.7 mm, the “Diameter of zone of growth inhibition, S. Aureus” value (Staphylococcus aureus; pre-made control disk 30 μg) was 17.8 mm and the “Diameter of zone of growth inhibition, B. Cereus” value (Bacillus cereus) was 15.7 mm. The “Diameter of zone of growth inhibition, E. Coli” value (Escherichia coli; pre-made control disk 30 μg) was 24.4 mm and the “Diameter of zone of growth inhibition, P. Hauseri” value (Proteus hauseri; pre-made control disk 30 μg) was 16.7 mm.
CC(C)=CCCC(C)CCO (centres unmarked) [Citronellol] gave a zone of inhibition at 100 µg/disc (Saccharomyces cerevisiae) of 6.7 mm, a zone of inhibition at 100 µg/disc (Staphylococcus aureus) of 5.4 mm and a zone of inhibition at 100 µg/disc (Escherichia coli) of 8.7 mm. The zone of inhibition at 100 µg/disc (Proteus hauseri) was 8.8 mm.
